Reference: paper PMC4503722, “Novel Phenotypic Outcomes Identified for a Public Collection of Approved Drugs from a Publicly Accessible Panel of Assays” (PLoS ONE, 2015)

What was measured:
[1] = tested on: endothelial tube formation in co-cultures of ECFCs and ADSCs treated with VEGF; assay: cells; assay type: cell-based, human
[2] = tested on: nuclear β-catenin in C2C12 cells; assay: cells; assay type: cell-based; conditions: concentration response; for WntCondMedia_bCatenin C2C12 IC50/EC50: assay number 5
[3] = tested on: alkaline phosphatase (ALP) activity in C2C12 cells; assay type: cell-based; conditions: concentration response; for WntCondMedia_Alk Phos C2C12 IC50/EC50: assay number 6
[4] = tested on: HeLa cells; assay: cells; assay type: cell-based; conditions: for Hela CellCycMod PI 2N IC50/EC50: assay number 14; for Hela CellCycMod PI S Phase IC50/EC50: assay number 15; for Hela CellCycMod PI 4N IC50/EC50: assay number 16; for Hela CellCycMod PI MI IC50/EC50: assay number 17; for Hela CellCycMod PI Cell Number IC50/EC50: assay number 18
[5] = molecular target: T1, hp70S6K1 (RPS6KB1) (Homo sapiens, UniProt P23443); assay: Cerep LANCE kinase assay hp70S6K1 (S1 assay 31); assay type: biochemical; conditions: for hp70S6K1 LANCE IC50/EC50: assay number 31
T1 construct: purchased Cerep (LANCE kinase assay platform, contract assay)
T1 sequence (P23443 whole entry): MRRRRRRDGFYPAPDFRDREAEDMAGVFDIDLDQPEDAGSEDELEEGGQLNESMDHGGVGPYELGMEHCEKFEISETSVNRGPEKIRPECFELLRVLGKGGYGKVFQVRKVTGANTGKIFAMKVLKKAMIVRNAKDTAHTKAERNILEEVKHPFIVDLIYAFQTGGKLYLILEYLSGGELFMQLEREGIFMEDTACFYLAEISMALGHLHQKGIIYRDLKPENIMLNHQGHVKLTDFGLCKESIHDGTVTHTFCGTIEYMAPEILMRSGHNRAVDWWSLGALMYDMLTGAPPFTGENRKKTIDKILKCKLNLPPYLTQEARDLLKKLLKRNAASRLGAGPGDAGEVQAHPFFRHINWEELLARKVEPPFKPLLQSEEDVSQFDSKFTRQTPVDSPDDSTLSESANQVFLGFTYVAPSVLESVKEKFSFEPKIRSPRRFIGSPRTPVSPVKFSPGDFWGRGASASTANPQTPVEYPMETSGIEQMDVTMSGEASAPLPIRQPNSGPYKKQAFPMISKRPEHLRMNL

[6] = molecular target: T2, hKDR (Homo sapiens, UniProt P35968); assay: Cerep LANCE kinase assay hKDR (S1 assay 32); assay type: biochemical; conditions: for hKDR LANCE IC50/EC50: assay number 32
T2 construct: purchased Cerep (LANCE kinase assay platform, contract assay)
T2 sequence (P35968 20-1356): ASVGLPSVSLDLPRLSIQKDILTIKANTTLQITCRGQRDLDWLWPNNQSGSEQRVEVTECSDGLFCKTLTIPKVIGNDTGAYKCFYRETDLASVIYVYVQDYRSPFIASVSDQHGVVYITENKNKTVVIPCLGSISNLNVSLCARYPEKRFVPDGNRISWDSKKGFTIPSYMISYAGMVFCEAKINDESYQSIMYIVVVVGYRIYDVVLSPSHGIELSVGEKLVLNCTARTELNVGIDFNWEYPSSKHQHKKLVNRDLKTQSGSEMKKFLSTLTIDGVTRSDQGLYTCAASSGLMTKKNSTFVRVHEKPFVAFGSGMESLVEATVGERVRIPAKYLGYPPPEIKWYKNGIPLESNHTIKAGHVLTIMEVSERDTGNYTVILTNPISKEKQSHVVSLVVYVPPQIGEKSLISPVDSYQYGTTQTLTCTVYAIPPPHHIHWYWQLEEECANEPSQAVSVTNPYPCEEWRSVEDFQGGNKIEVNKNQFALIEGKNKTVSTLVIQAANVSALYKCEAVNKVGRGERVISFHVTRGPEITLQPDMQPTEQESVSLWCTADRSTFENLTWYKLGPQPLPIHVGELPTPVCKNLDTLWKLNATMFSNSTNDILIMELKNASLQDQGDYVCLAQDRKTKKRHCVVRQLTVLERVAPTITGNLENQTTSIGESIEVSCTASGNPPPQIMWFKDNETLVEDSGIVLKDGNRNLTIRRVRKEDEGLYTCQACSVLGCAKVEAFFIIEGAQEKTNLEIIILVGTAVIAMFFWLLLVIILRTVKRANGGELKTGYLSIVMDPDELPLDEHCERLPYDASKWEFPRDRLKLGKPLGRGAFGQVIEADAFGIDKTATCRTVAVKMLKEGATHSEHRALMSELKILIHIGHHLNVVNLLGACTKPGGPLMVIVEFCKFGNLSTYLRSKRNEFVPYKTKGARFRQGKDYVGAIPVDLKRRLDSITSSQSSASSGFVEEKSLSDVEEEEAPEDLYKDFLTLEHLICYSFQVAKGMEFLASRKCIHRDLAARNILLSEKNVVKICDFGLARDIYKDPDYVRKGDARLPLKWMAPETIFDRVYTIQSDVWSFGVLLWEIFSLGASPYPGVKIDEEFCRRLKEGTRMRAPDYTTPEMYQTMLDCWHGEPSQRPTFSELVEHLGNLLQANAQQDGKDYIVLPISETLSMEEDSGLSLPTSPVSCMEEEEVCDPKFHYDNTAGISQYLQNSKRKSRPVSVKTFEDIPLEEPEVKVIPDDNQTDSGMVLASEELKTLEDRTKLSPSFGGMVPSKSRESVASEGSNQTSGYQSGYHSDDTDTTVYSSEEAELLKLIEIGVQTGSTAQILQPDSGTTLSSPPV

[7] = molecular target: T3, hJAK2 (Homo sapiens, UniProt O60674); assay: Cerep LANCE kinase assay hJAK2 (S1 assay 33); assay type: biochemical; conditions: for hJAK2 LANCE IC50/EC50: assay number 33
T3 construct: purchased Cerep (LANCE kinase assay platform, contract assay)
T3 sequence (O60674 whole entry): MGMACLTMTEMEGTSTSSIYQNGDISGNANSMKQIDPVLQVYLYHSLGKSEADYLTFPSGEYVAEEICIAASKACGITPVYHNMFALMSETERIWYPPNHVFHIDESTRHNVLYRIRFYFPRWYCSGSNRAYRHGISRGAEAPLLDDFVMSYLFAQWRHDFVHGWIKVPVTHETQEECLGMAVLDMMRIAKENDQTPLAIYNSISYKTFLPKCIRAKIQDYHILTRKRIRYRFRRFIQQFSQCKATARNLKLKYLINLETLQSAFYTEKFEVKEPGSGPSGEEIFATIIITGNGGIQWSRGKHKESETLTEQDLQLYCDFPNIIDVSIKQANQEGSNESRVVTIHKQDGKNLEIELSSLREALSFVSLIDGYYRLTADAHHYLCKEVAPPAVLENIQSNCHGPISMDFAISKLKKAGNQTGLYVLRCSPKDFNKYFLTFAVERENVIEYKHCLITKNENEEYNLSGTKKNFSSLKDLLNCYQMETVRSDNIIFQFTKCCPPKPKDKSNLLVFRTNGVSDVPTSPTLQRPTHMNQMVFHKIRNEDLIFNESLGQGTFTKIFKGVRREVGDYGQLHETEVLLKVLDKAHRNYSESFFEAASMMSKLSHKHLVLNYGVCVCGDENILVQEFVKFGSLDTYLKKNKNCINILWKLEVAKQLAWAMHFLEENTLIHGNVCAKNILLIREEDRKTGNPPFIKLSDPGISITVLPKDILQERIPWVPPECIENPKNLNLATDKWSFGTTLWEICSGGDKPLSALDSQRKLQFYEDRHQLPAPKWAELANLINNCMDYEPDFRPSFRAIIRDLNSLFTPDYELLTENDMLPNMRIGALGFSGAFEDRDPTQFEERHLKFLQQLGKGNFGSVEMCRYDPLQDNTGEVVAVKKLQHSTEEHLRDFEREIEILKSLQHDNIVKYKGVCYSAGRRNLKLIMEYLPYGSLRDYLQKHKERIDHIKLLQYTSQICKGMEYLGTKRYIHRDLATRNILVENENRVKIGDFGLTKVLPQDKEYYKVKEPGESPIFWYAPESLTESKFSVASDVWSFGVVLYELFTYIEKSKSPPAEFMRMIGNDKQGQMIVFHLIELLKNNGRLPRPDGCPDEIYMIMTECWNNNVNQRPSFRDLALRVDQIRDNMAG

[8] = molecular target: T4, hGSK3b (Homo sapiens, UniProt P49841); assay: Cerep LANCE kinase assay hGSK3b (S1 assay 34); assay type: biochemical; conditions: for hGSK3b LANCE IC50/EC50: assay number 34
T4 construct: purchased Cerep (LANCE kinase assay platform, contract assay)
T4 sequence (P49841 whole entry): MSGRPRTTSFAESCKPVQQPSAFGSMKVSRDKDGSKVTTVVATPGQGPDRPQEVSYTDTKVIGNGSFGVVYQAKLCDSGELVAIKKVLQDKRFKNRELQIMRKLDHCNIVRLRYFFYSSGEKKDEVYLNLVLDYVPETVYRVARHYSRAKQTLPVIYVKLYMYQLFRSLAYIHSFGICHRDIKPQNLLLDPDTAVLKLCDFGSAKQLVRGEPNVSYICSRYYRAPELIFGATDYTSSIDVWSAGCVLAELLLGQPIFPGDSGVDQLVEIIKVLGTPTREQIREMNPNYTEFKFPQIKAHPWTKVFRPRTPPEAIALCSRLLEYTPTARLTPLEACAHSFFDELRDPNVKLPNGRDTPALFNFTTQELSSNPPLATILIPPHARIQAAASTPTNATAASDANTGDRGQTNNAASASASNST

[9] = molecular target: T5, hFLT3 (Homo sapiens, UniProt P36888); assay: Cerep LANCE kinase assay hFLT3 (S1 assay 35); assay type: biochemical; conditions: for hFLT3 LANCE IC50/EC50: assay number 35
T5 construct: purchased Cerep (LANCE kinase assay platform, contract assay)
T5 sequence (P36888 27-993): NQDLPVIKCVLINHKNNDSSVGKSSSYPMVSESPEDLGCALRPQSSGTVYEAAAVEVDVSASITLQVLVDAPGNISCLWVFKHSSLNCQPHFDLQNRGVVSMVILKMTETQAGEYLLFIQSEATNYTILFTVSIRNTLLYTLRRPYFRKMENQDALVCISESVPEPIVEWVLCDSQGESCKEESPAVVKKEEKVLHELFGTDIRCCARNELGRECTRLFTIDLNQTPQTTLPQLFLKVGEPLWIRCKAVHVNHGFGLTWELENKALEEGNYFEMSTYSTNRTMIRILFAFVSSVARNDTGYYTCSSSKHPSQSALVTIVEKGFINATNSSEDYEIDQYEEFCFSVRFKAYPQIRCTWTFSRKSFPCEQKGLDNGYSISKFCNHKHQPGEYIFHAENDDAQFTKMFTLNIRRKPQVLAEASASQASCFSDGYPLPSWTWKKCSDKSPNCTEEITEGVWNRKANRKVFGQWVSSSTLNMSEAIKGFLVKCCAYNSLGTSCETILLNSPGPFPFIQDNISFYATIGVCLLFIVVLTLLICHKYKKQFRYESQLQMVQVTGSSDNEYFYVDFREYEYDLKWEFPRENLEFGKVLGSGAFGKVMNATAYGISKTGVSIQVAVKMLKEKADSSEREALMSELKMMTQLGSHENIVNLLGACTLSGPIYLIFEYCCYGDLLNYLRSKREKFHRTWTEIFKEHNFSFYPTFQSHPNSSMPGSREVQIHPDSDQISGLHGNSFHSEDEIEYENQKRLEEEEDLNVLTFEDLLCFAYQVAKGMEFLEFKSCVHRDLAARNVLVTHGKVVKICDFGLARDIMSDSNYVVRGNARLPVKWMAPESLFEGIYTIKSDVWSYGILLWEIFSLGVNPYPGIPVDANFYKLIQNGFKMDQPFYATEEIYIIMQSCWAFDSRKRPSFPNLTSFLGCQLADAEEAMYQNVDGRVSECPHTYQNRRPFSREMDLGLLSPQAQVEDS

[10] = tested on: ECFC/ADSC co-culture cell nuclei number

| SMILES | VEGF_ADSC\ECFC Angio CD31 TubeArea IC50/EC50 [1] [µM] | WntCondMedia_bCatenin C2C12 IC50/EC50 [2] [µM] | WntCondMedia_Alk Phos C2C12 IC50/EC50 [3] [µM] | Hela CellCycMod PI 2N IC50/EC50 ([4]; 2N) [µM] | Hela CellCycMod PI S Phase IC50/EC50 [4] [µM] | Hela CellCycMod PI 4N IC50/EC50 ([4]; 4N) [µM] | Hela CellCycMod PI MI IC50/EC50 ([4]; MI) [µM] | Hela CellCycMod PI Cell Number IC50/EC50 [4] [µM] | hp70S6K1 LANCE IC50/EC50 [5] [µM] | hKDR LANCE IC50/EC50 [6] [µM] | hJAK2 LANCE IC50/EC50 [7] [µM] | hGSK3b LANCE IC50/EC50 [8] [µM] | hFLT3 LANCE IC50/EC50 [9] [µM] | VEGF_ADSC\ECFC Angio Hoechst NucArea IC50/EC50 [10] [µM] | other results |
| --- | --- | --- | --- | --- | --- | --- | --- | --- | --- | --- | --- | --- | --- | --- | --- |
| C=C(C)[C@H]1Cc2c(ccc3c2O[C@@H]2COc4cc(OC)c(OC)cc4[C@@H]2C3=O)O1 [NCGC00017358-15] | 0.0257 | 2.9875 | 0.2539 | 0.3111 | > 10 | 0.3108 | 0.2229 | 0.1532 | > 20 | > 20 | > 20 | > 20 | > 20 | > 10 |  |
| CCCOc1ccc2nc(NC(=O)OC)[nH]c2c1 [NCGC00018238-09] | 0.3276 | 0.3653 | 0.0881 | 0.0622 |  | 0.0567 | 0.0775 | 0.0467 | > 20 | > 20 | > 20 | > 20 | > 20 | > 10 |  |
| CC(=O)[C@]1(O)Cc2c(O)c3c(c(O)c2[C@@H](O[C@H]2C[C@H](N)[C@H](O)[C@H](C)O2)C1)C(=O)c1ccccc1C3=O [NCGC00093976-08] | 0.0208 | 0.1001 | 0.5039 | 0.0111 | > 10 | > 10 | 0.6593 | 0.0142 | > 20 | > 20 | > 20 | > 20 | > 20 | 0.5381 |  |
| CCCCC1C(=O)N(c2ccccc2)N(c2ccc(O)cc2)C1=O (stereo not shown) [NCGC00094748-07] | 3.2937 | > 20 | 4.9189 | > 10 | > 10 | > 10 | > 10 | 1.6628 | > 20 | > 20 | > 20 | > 20 | > 20 | 8.826 |  |
| CCCCCCNC(=O)n1cc(F)c(=O)[nH]c1=O [NCGC00095165-07] | 4.486 | 4.9829 | 5.5533 | > 10 |  | > 10 | > 10 | > 10 | > 20 | > 20 | > 20 | > 20 | > 20 | > 10 |  |
| [O-][n+]1ccccc1SSc1cccc[n+]1[O-] [NCGC00164493-02] | 0.719 | 0.9914 | 0.1306 | > 10 | > 10 | > 10 | 2.2317 | 0.8425 | > 20 | > 20 | > 20 | > 20 | > 20 | 1.7865 |  |
| CC(C)(C)C(=O)OCOP(=O)(COCCn1cnc2c(N)ncnc21)OCOC(=O)C(C)(C)C [NCGC00164624-02] | 0.3913 | 0.7043 | 0.3874 | > 10 | 0.0608 | > 10 | > 10 | 0.134 | > 20 | > 20 | > 20 | > 20 | > 20 | > 10 |  |
| CC[C@@]1(O)C(=O)OCc2c1cc1n(c2=O)Cc2c-1nc1ccccc1c2/C=N/OC(C)(C)C [NCGC00253588-01] | 0.002 | 1.1571 | 0.0032 |  |  | > 10 | > 10 | 0.0022 | > 20 | > 20 | > 20 | > 20 | > 20 | 0.7994 |  |
| Cc1cc(O)c2ccccc2c1O [NCGC00253592-01] | 4.8933 | 4.3946 | 1.7548 | > 10 | > 10 | > 10 | > 10 | 2.4571 | > 20 | 18.36 | > 20 | 19.11 | > 20 | 9.854 |  |
| COC(=O)c1nc(Cl)c(Cl)nc1N [NCGC00253704-01] |  |  |  |  |  |  |  |  |  |  |  |  |  |  | IC50/EC50, VEGF_ADSC\ECFC Angio CD31 TubeArea (assay number 2) [1]: 0.8652 µM; IC50/EC50, WntCondMedia_bCatenin C2C12 (assay number 5) [2]: 0.3085 µM; IC50/EC50, WntCondMedia_Alk Phos C2C12 (assay number 6) [3]: 0.1565 µM; IC50/EC50, Hela CellCycMod PI 2N (assay number 14) ([4]; 2N): 0.3341 µM; IC50/EC50, Hela CellCycMod PI 4N (assay number 16) ([4]; 4N): 0.5115 µM; IC50/EC50, Hela CellCycMod PI Cell Number (assay number 18) ([4]; Cell Number): 0.4075 µM; IC50/EC50, Hela CellCycMod PI MI (assay number 17) ([4]; MI): 0.8681 µM; IC50/EC50, Hela CellCycMod PI S Phase (assay number 15) ([4]; S Phase): > 10 µM; IC50/EC50, hp70S6K1 LANCE (assay number 31) [5]: > 20 µM; IC50/EC50, hKDR LANCE (assay number 32) [6]: > 20 µM; IC50/EC50, hJAK2 LANCE (assay number 33) [7]: > 20 µM; IC50/EC50, hGSK3b LANCE (assay number 34) [8]: > 20 µM; IC50/EC50, hFLT3 LANCE (assay number 35) [9]: 2.86 µM; IC50/EC50, VEGF_ADSC\ECFC Angio Hoechst NucArea (assay number 3) [10]: 6.796 µM |
